Reference: patent publication US12545660B2, “Crystalline forms of a farnesoid X receptor agonist” (ELI LILLY AND COMPANY, priority 2020, dated 2026)
pEC50: −log10 of the molar value.

How the values were obtained:
[1] = Dynamic Vapor Sorption (DVS); type: physicochemical; conditions: for water content at 95% RH (DVS) / hygroscopicity (DVS): 25° C.; for water content at 95% RH (DVS): two complete sorption/desorption cycles; for hygroscopicity (DVS): DVS isotherm
Protocol: Sorption isotherms were obtained using a SMS DVS Intrinsic moisture sorption analyzer, controlled by DVS Intrinsic Control software v1.0.1.2 (or v1.0.1.3). The sample temperature was maintained at 25° C. by the instrument controls. The humidity was controlled by mixing streams of dry and wet nitrogen, with a total flow rate of 200 ml/min. The relative humidity (RH) was measured by a calibrated Rotronic probe (dynamic range of 1.0-100% RH), located near the sample. The weight change, (mass relaxation) of the sample as a function of % RH was constantly monitored by the microbalance (accuracy ±0.005 mg).

hFXR = target: T1, hFXR (Homo sapiens, UniProt Q96RI1); experiment: In Vitro FXR Assay (TK); type: cell-based; conditions: CV-1 cells transfected with hFXR, hRXR, TK-ECRE-luc and pCMX-YFP; incubated 18 hrs; luminescence
T1 construct: expressed in transfected cells; host or cells: CV-1 cells
T1 sequence (Q96RI1 1-486): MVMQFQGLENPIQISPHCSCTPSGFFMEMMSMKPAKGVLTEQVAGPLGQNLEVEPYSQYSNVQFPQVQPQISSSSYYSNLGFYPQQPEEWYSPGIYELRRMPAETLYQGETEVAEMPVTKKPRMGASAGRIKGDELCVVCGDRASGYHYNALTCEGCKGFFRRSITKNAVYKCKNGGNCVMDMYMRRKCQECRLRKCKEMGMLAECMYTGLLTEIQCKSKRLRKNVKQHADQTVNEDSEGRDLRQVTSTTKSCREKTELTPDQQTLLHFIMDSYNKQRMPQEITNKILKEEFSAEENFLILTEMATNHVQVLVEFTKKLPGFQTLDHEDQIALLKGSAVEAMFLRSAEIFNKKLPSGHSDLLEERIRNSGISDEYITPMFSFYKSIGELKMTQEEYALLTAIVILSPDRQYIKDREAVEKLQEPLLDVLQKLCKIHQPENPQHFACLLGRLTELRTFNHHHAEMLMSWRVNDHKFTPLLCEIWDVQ
T1 sequence (P19793 1-462 partner): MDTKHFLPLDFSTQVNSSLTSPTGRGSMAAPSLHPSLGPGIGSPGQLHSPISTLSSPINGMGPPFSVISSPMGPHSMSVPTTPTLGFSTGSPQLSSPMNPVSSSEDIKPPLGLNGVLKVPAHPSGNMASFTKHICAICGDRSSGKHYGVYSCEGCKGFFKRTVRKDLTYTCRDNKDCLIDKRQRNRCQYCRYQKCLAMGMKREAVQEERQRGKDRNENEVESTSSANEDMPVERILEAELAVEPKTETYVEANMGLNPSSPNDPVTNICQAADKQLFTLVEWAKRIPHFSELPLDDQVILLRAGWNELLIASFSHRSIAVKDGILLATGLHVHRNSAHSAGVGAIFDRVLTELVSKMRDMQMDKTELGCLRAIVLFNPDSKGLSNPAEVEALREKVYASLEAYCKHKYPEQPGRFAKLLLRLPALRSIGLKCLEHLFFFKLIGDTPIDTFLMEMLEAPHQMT
Protocol: Example 10: In Vitro FXR Assay (TK)
CV-1 were seeded at a density of 2,000,000 cells in a T175 flask with DMEM+10% charcoal double-stripped FBS and incubated at 37° C. in 5% CO2 for 18 h (O/N).
After 18 h of incubation, the medium in the T175 flask was changed with fresh DMEM+10% charcoal super-stripped serum. In a polypropylene tube, 2500 μL OptiMEM (Life Technologies, Cat #31985-062) was combined with expression plasmids for hFXR, hRXR, TK-ECRE-luc and pCMX-YFP. The tube was then briefly vortexed and incubated at room temperature for 5 minutes. Transfection reagent (X-tremeGENE HP from Roche, Cat #06 366 236 001) was added to the OptiMEM/plasmid mixture vortexed and incubated at room temperature for 20 minutes. Following incubation, the transfection reagent/DNA mixture complex was added to cells in the T175 flask and the cells were incubated at 37° C. in 5% CO2 for 18 h (O/N).
Compound 1 was serially diluted in DMSO and added to transfected CV-1 cells. The cells were then incubated for 18 hrs. The next day cells were lysed and examined for luminescence. Compound 1 TK hFXR: EC50≤0.01 μM.

Row | SMILES | water content at 95% RH (DVS) [1] [%] | hygroscopicity (DVS) [1] | changes in the XRPD pattern of post-DVS samples [1] | pEC50 (hFXR)
1 | COc1ccc(C23CCC(CN(c4cc(-c5cnn(C(C)(C)C)c5)ccn4)C(=O)[C@H]4CC[C@H](OC(=O)N5CC(O)C5)CC4)(CC2)CC3)cc1C [Form 4 of Compound 1, 4-((4-(1-(tert-butyl)-1H-pyrazol-4-yl)pyridin-2-yl)((4-(4-methoxy-3-methylphenyl)bicyclo[2.2.2]octan-1-yl)methyl)carbamoyl)cyclohexyl 3-hydroxyazetidine-trans-1-carboxylate] | 1.9 | only slightly hygroscopic | no significant changes | –
2 | COc1ccc(C23CCC(CN(c4cc(-c5cnn(C(C)(C)C)c5)ccn4)C(=O)[C@H]4CC[C@H](OC(=O)N5CC(O)C5)CC4)(CC2)CC3)cc1C [Compound 1, 4-((4-(1-(tert-butyl)-1H-pyrazol-4-yl)pyridin-2-yl)((4-(4-methoxy-3-methylphenyl)bicyclo[2.2.2]octan-1-yl)methyl)carbamoyl)cyclohexyl 3-hydroxyazetidine-trans-1-carboxylate] | – | – | – | ≥ 8.00

Results, then the compound that gave them:

Row | water content at 95% RH (DVS) [1] [%] | hygroscopicity (DVS) [1] | changes in the XRPD pattern of post-DVS samples [1] | pEC50 (hFXR) | SMILES
3 | 1.2 | only slightly hygroscopic | no significant changes | – | COc1ccc(C23CCC(CN(c4cc(-c5cnn(C(C)(C)C)c5)ccn4)C(=O)[C@H]4CC[C@H](OC(=O)N5CC(O)C5)CC4)(CC2)CC3)cc1C [Form 3 of Compound 1, 4-((4-(1-(tert-butyl)-1H-pyrazol-4-yl)pyridin-2-yl)((4-(4-methoxy-3-methylphenyl)bicyclo[2.2.2]octan-1-yl)methyl)carbamoyl)cyclohexyl 3-hydroxyazetidine-trans-1-carboxylate]
4 | 1.2 | only slightly hygroscopic | no significant changes | – | COc1ccc(C23CCC(CN(c4cc(-c5cnn(C(C)(C)C)c5)ccn4)C(=O)[C@H]4CC[C@H](OC(=O)N5CC(O)C5)CC4)(CC2)CC3)cc1C [Form 1 of Compound 1, 4-((4-(1-(tert-butyl)-1H-pyrazol-4-yl)pyridin-2-yl)((4-(4-methoxy-3-methylphenyl)bicyclo[2.2.2]octan-1-yl)methyl)carbamoyl)cyclohexyl 3-hydroxyazetidine-trans-1-carboxylate]
5 | 1.0 | only slightly hygroscopic | no significant changes | – | COc1ccc(C23CCC(CN(c4cc(-c5cnn(C(C)(C)C)c5)ccn4)C(=O)[C@H]4CC[C@H](OC(=O)N5CC(O)C5)CC4)(CC2)CC3)cc1C [Form 2 of Compound 1, 4-((4-(1-(tert-butyl)-1H-pyrazol-4-yl)pyridin-2-yl)((4-(4-methoxy-3-methylphenyl)bicyclo[2.2.2]octan-1-yl)methyl)carbamoyl)cyclohexyl 3-hydroxyazetidine-trans-1-carboxylate]
